Reference: PubChem BioAssay AID256 (DTP/NCI, 2004)
Several values for one entry are separate records, joined by “and”; a condition that tells them apart may be missing. Equal values may be shown once. Inconclusive results and toxic doses are left out. Rule for the calls: active = survival T/C of 150% or more; inactive = T/C below 125% in these data.

Tested on: CD2F1 mice, L1210 leukemia ip, survival T/C
Assay: NCI In Vivo Anticancer Drug Screen. Data for tumor model L1210 Leukemia (intraperitoneal) in CD2F1 (CDF1) mice
Settings: higher = longer survival
Outline: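 Each value reflects a quotient of treated over vehicle control outcomes in mice with a transplanted tumor.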

[1] = endpoint: mean survival time, dose: 100.0 mg/kg/injection, schedule: Q04DX003 (ip), vehicle: other
[2] = endpoint: mean survival time, dose: 200.0 mg/kg/injection, schedule: Q04DX003 (ip), vehicle: other
[3] = endpoint: mean survival time, dose: 12.5 mg/kg/injection, schedule: Q01DX009 (ip), vehicle: saline with Tween-80
[4] = endpoint: mean survival time, dose: 25.0 mg/kg/injection, schedule: Q01DX009 (ip), vehicle: saline with Tween-80
[5] = endpoint: mean survival time, dose: 100.0 mg/kg/injection, schedule: Q04DX003 (ip), vehicle: saline with Tween-80
[6] = endpoint: mean survival time, dose: 200.0 mg/kg/injection, schedule: Q04DX003 (ip), vehicle: saline with Tween-80
[7] = endpoint: mean survival time, dose: 400.0 mg/kg/injection, schedule: Q04DX003 (ip), vehicle: saline with Tween-80
[8] = endpoint: mean survival time, dose: 100.0 mg/kg/injection, schedule: Q01DX001 (ip), vehicle: saline with Tween-80
[9] = endpoint: mean survival time, dose: 100.0 mg/kg/injection, schedule: Q01DX009 (ip), vehicle: saline with Tween-80
[10] = endpoint: mean survival time, dose: 200.0 mg/kg/injection, schedule: Q01DX009 (ip), vehicle: saline with Tween-80
[11] = endpoint: mean survival time, dose: 2.5 mg/kg/injection, schedule: Q01DX009 (ip), vehicle: Klucel (hydroxypropylcellulose) (HPC)
[12] = endpoint: mean survival time, dose: 5.0 mg/kg/injection, schedule: Q01DX009 (ip), vehicle: Klucel (hydroxypropylcellulose) (HPC)
[13] = endpoint: mean survival time, dose: 400.0 mg/kg/injection, schedule: Q04DX003 (ip), vehicle: other

Measured: T/C

O=C(C(F)(F)F)C(F)(F)F (tested in a mixture with another compound)
inactive: endpoint: mean survival time, dose: 25.0 mg/kg/injection, schedule: Q04DX003 (ip), vehicle: other 100 % of control | endpoint: mean survival time, dose: 50.0 mg/kg/injection, schedule: Q04DX003 (ip), vehicle: other 95 % of control | [1] 94 % of control | [2] 92 % of control

N=c1ncn(C2OC(COP(=O)(O)O)C(O)C2O)c2nc[nH]c12 (configuration not stated)
inactive: endpoint: mean survival time, dose: 0.78 mg/kg/injection, schedule: Q01DX005 (ip), vehicle: water 102 % of control | endpoint: mean survival time, dose: 1.56 mg/kg/injection, schedule: Q01DX005 (ip), vehicle: water 110 % of control | endpoint: mean survival time, dose: 3.13 mg/kg/injection, schedule: Q01DX005 (ip), vehicle: water 105 % of control | endpoint: mean survival time, dose: 6.25 mg/kg/injection, schedule: Q01DX005 (ip), vehicle: water 111 % of control | endpoint: mean survival time, dose: 11.3 mg/kg/injection, schedule: Q01DX005 (ip), vehicle: water 98 % of control | endpoint: mean survival time, dose: 12.5 mg/kg/injection, schedule: Q01DX005 (ip), vehicle: water 102 % of control | endpoint: mean survival time, dose: 22.5 mg/kg/injection, schedule: Q01DX005 (ip), vehicle: water 98 % of control | endpoint: mean survival time, dose: 45.0 mg/kg/injection, schedule: Q01DX005 (ip), vehicle: water 102 % of control

CC[C@](C)(O)C(=O)O[C@H]1C(=O)O[C@@H]2C[C@H]3C(C)=CC(=O)[C@@H](O)[C@]3(C)[C@H]3[C@@]4(O)OC[C@]32[C@@H]1[C@@H](C)[C@H]4O
inactive: endpoint: mean survival time, dose: 12.5 micrograms/kg/injection, schedule: Q01DX009 (ip), vehicle: saline with Tween-80 101 % of control | endpoint: mean survival time, dose: 25.0 micrograms/kg/injection, schedule: Q01DX009 (ip), vehicle: saline with Tween-80 100 % of control | endpoint: mean survival time, dose: 50.0 micrograms/kg/injection, schedule: Q01DX009 (ip), vehicle: saline with Tween-80 105 % of control | endpoint: mean survival time, dose: 100.0 micrograms/kg/injection, schedule: Q01DX009 (ip), vehicle: saline with Tween-80 112 % of control

CC(=O)N(C)N=Nc1ccc(C)cc1
inactive: endpoint: mean survival time, dose: 88.0 mg/kg/injection, schedule: Q04DX003 (ip), vehicle: other 114 % of control | [2] 121 % of control

CN1CCCN(C)C1c1ccc(Cl)cc1
inactive: endpoint: mean survival time, dose: 6.25 mg/kg/injection, schedule: Q01DX009 (ip), vehicle: saline with Tween-80 98 % of control | [3] 100 % of control | [4] 94 % of control

O=C(/C=C/c1ccccc1)N1CCCCC1
inactive: [5] 98 % of control | [6] 89 % of control | [7] 94 % of control

COC(=O)C(C)C1CCC2C3CCC4CC(OC(C)=O)CCC4(C)C3CC(OC(C)=O)C12C (configuration not stated)
inactive: [8] 95 % of control | endpoint: mean survival time, dose: 200.0 mg/kg/injection, schedule: Q01DX001 (ip), vehicle: saline with Tween-80 103 % of control | endpoint: mean survival time, dose: 400.0 mg/kg/injection, schedule: Q01DX001 (ip), vehicle: saline with Tween-80 94 % of control

NC(=O)c1cn(C2OC(CO)C3OC32)c2ncnc(NC(=O)c3ccccc3)c12 (configuration not stated)
inactive: endpoint: mean survival time, dose: 25.0 mg/kg/injection, schedule: Q01DX009 (ip), vehicle: distilled water + Tween-80 90 % of control | endpoint: mean survival time, dose: 50.0 mg/kg/injection, schedule: Q01DX009 (ip), vehicle: distilled water + Tween-80 93 % of control | endpoint: mean survival time, dose: 100.0 mg/kg/injection, schedule: Q01DX009 (ip), vehicle: distilled water + Tween-80 93 % of control | endpoint: mean survival time, dose: 200.0 mg/kg/injection, schedule: Q01DX009 (ip), vehicle: distilled water + Tween-80 97 % of control | endpoint: mean survival time, dose: 400.0 mg/kg/injection, schedule: Q01DX009 (ip), vehicle: distilled water + Tween-80 100 % of control

Cc1ccc([N+](=O)[O-])cc1NC(=O)Oc1ccc2c(C)cc(=O)oc2c1
inactive: endpoint: mean survival time, dose: 100.0 mg/kg/injection, schedule: Q04DX002 (ip), vehicle: Klucel (hydroxypropylcellulose) (HPC) 92 % of control | endpoint: mean survival time, dose: 200.0 mg/kg/injection, schedule: Q04DX002 (ip), vehicle: Klucel (hydroxypropylcellulose) (HPC) 100 % of control | endpoint: mean survival time, dose: 400.0 mg/kg/injection, schedule: Q04DX002 (ip), vehicle: Klucel (hydroxypropylcellulose) (HPC) 87 % of control

NS(=O)(=O)c1cc(Cl)cc(Cl)c1O
inactive: [6] 91 % of control | [7] 93 % of control

CCCCCn1c(CN2CCCCC2)nc2c1-c1ccccc1C(=O)C2=O
inactive: [5] 96 % of control | [6] 103 % of control | [7] 103 % of control

CCCCCOc1nccc(N)n1
inactive: [8] 98 % of control

CC(=O)N(C1=CC(=O)c2ccccc2C1=O)c1ccc(C)cc1
inactive: endpoint: mean survival time, dose: 75.0 mg/kg/injection, schedule: Q01DX001 (ip), vehicle: saline 100 % of control | endpoint: mean survival time, dose: 150.0 mg/kg/injection, schedule: Q01DX001 (ip), vehicle: saline 100 % of control

CC(=O)N1c2cc3ccccc3cc2N(C(C)=O)c2cc3ccccc3cc21
inactive: [5] 103 % of control | [6] 103 % of control | [7] 107 % of control

c1ccc2cc3nc4cc5ccccc5cc4nc3cc2c1
inactive: [5] 95 % of control | [6] 103 % of control | [7] 91 % of control

[I][Pt+2][I].[NH-]c1ccc(S(=O)(=O)Nc2ccccn2)cc1.[NH-]c1ccc(S(=O)(=O)Nc2ccccn2)cc1
inactive: endpoint: mean survival time, dose: 20.31 mg/kg/injection, schedule: Q04DX003 (ip), vehicle: saline with Tween-80 105 % of control | endpoint: mean survival time, dose: 40.63 mg/kg/injection, schedule: Q04DX003 (ip), vehicle: saline with Tween-80 105 % of control | endpoint: mean survival time, dose: 81.25 mg/kg/injection, schedule: Q04DX003 (ip), vehicle: saline with Tween-80 90 % of control | endpoint: mean survival time, dose: 162.5 mg/kg/injection, schedule: Q04DX003 (ip), vehicle: saline with Tween-80 94 % of control | endpoint: mean survival time, dose: 325.0 mg/kg/injection, schedule: Q04DX003 (ip), vehicle: saline with Tween-80 102 % of control

COc1ccc(Sc2cccc3c2C(=O)c2c(Sc4ccc(OC)cc4)cccc2C3=O)cc1
inactive: [9] 99 % of control | [10] 94 % of control | endpoint: mean survival time, dose: 400.0 mg/kg/injection, schedule: Q01DX009 (ip), vehicle: saline with Tween-80 89 % of control

COC(=O)c1cc(C)n(-c2ccc(C)cc2)c1C
inactive: [5] 100 % of control | [6] 96 % of control | [7] 97 % of control

Cc1cc(C)nc(NC(=S)N/N=C/c2ccccn2)n1
inactive: endpoint: mean survival time, dose: 100.0 mg/kg/injection, schedule: Q04DX002 (ip), vehicle: saline with Tween-80 98 % of control | endpoint: mean survival time, dose: 200.0 mg/kg/injection, schedule: Q04DX002 (ip), vehicle: saline with Tween-80 98 % of control | endpoint: mean survival time, dose: 400.0 mg/kg/injection, schedule: Q04DX002 (ip), vehicle: saline with Tween-80 106 % of control

CC1=C(C)C2(C)C(C)C2(C)C1C (configuration not stated)
inactive: [5] 90 % of control | [6] 110 % of control | [7] 98 % of control

C=C1C(C)C2C(Cc3ccccc3)NC(=O)C23C(OC(C)=O)C=CC(C)(O)C(=O)C(C)C/C=C/C3C1O (configuration not stated)
inactive: endpoint: mean survival time, dose: 0.63 mg/kg/injection, schedule: Q01DX009 (ip), vehicle: Klucel (hydroxypropylcellulose) (HPC) 101 % of control | endpoint: mean survival time, dose: 1.25 mg/kg/injection, schedule: Q01DX009 (ip), vehicle: Klucel (hydroxypropylcellulose) (HPC) 101 % of control | [11] 95 % of control | [12] 98 % of control

COc1ccc(C2=Nc3cccc4c3N(CCC4)C2c2ccc(OC)cc2)cc1 (configuration not stated)
inactive: [1] 96 % of control | [2] 96 % of control | [13] 94 % of control

COc1cc(OC)c(NC(=O)Oc2ccc(C(C)(C)C)cc2Br)cc1Cl
inactive: [3] 97 % of control | [4] 102 % of control | endpoint: mean survival time, dose: 50.0 mg/kg/injection, schedule: Q01DX009 (ip), vehicle: saline with Tween-80 94 % of control | [9] 93 % of control | [10] 86 % of control

C[n+]1ccccc1SC12CC3CC(CC(C3)C1)C2
inactive: [11] 98 % of control | [12] 98 % of control | endpoint: mean survival time, dose: 10.0 mg/kg/injection, schedule: Q01DX009 (ip), vehicle: Klucel (hydroxypropylcellulose) (HPC) 103 % of control

Cc1ccc(CNc2ccccc2)cc1
inactive: endpoint: mean survival time, dose: 12.5 mg/kg/injection, schedule: Q01DX009 (ip), vehicle: other 103 % of control | endpoint: mean survival time, dose: 25.0 mg/kg/injection, schedule: Q01DX009 (ip), vehicle: other 108 % of control | endpoint: mean survival time, dose: 50.0 mg/kg/injection, schedule: Q01DX009 (ip), vehicle: other 96 % of control | [1] 97 % of control | [2] 89 % of control and 102 % of control | [13] 88 % of control and 96 % of control

O=c1nc(N2CCCCC2)ccn1C1OC(CO)C(O)C1O (configuration not stated)
inactive: endpoint: median survival time, dose: 12.5 mg/kg/injection, schedule: Q01DX005 (ip), vehicle: water 98 % of control | endpoint: median survival time, dose: 25.0 mg/kg/injection, schedule: Q01DX005 (ip), vehicle: water 106 % of control | endpoint: median survival time, dose: 50.0 mg/kg/injection, schedule: Q01DX005 (ip), vehicle: water 106 % of control | endpoint: median survival time, dose: 100.0 mg/kg/injection, schedule: Q01DX005 (ip), vehicle: water 112 % of control | endpoint: median survival time, dose: 200.0 mg/kg/injection, schedule: Q01DX005 (ip), vehicle: water 104 % of control
